Reference: ChEMBL document CHEMBL4152235, “Synthesis, anionophoric activity and apoptosis-inducing bioactivity of benzimidazolyl-based transmembrane anion transporters” (Eur J Med Chem, 2018)
Active and inactive are the calls of the source. The rule behind the calls is not given here.

Experiments:
HeLa [1] = assay: Cytotoxicity against human HeLa cells assessed as reduction in cell viability at 50 uM after 48 hrs by MTT assay relative to control; format: functional
[2] = (§1) Ionophoric activity across pyranine dye encapsulated pH 7 egg yolk L-alpha-phosphatidylcholine-based liposomal membranes assessed as chloride ion transport by measuring induction of pH discharge at 1.95 x 10^-3 mol% after 20 mins in presence of LiCl loaded external vesicles by fluorescence method
[3] = Ionophoric activity across pyranine dye encapsulated pH 7 egg yolk L-alpha-phosphatidylcholine-based liposomal membranes assessed as chloride ion transport by measuring induction of pH discharge at 1.95 x 10^-3 mol% after 20 mins in presence of RbCl loaded external vesicles by fluorescence method
[4] = Ionophoric activity across pyranine dye encapsulated pH 7 egg yolk L-alpha-phosphatidylcholine-based liposomal membranes assessed as bromide ion transport by measuring induction of pH discharge at 1.95 x 10^-3 mol% after 20 mins in presence of NaBr loaded external vesicles by fluorescence method
[5] = Ionophoric activity across pyranine dye encapsulated pH 7 egg yolk L-alpha-phosphatidylcholine-based liposomal membranes assessed as chloride ion transport by measuring induction of pH discharge at 1.95 x 10^-3 mol% after 20 mins in presence of KCl loaded external vesicles by fluorescence method
[6] = Binding affinity to chloride ion assessed as 1:1 compound-Cl- complex formation at 4.1 mM using tetra(n-butyl)ammonium chloride by ESI MS spectrometric method
[7] = Ionophoric activity across pyranine dye encapsulated pH 7 egg yolk L-alpha-phosphatidylcholine-based liposomal membranes assessed as nitrate ion transport by measuring induction of pH discharge at 1.95 x 10^-3 mol% after 20 mins in presence of NaNO3 loaded external vesicles by fluorescence method
MCF7 [8] = assay: Cytotoxicity against human MCF7 cells assessed as reduction in cell viability up to 10 uM after 12 hrs in presence of chloride by MTT assay; format: functional, cell-based
[9] = (§2) Ionophoric activity across pyranine dye encapsulated pH 7 egg yolk L-alpha-phosphatidylcholine-based liposomal membranes assessed as chloride ion transport by measuring induction of pH discharge after 20 mins in presence of NaCl loaded external vesicles by fluorescence method
[10] = as §2, with “measuring initial rate constant for” for “measuring”, “discharge at 4.88 x 10^-4 mol%” for “discharge”, “method (reference value: 5.03 +/- 1.02 10^-3/min)” for “method”
[11] = Ionophoric activity across pyranine dye encapsulated pH 7 egg yolk L-alpha-phosphatidylcholine-based liposomal membranes assessed as iodide ion transport by measuring induction of pH discharge at 1.95 x 10^-3 mol% after 20 mins in presence of NaI loaded external vesicles by fluorescence method
[12] = as §1, with “measuring initial rate constant for” for “measuring”, “7.81” for “1.95”, “NaCl” for “LiCl”, “method (reference value: 5.03 +/- 1.02 10^-3/min)” for “method”
[13] = as §1, with “measuring initial rate constant for” for “measuring”, “3.91” for “1.95”, “NaCl” for “LiCl”, “method (reference value: 5.03 +/- 1.02 10^-3/min)” for “method”
MCF7 [14] = assay: Cytotoxicity against human MCF7 cells assessed as reduction in cell viability after 48 hrs by MTT assay; format: functional, cell-based; conditions: MCF7, 48 h
[15] = Ionophoric activity across lucigenin probe encapsulated pH 7 egg yolk L-alpha-phosphatidylcholine-based large unilamellar vesicles loaded with Na2SO4 assessed as chloride ion efflux at 7.81 x 10^-3mol% after 20 mins in presence of NaCl/Na2SO4 loaded external vesicles by fluorescence method
HeLa [16] = assay: Ionophoric activity across human HeLa cells assessed as chloride ion efflux up to 10 uM after 2 hrs by MQAE dye based fluorescence assay; format: cell-based
HeLa [17] = assay: Induction of apoptosis in human HeLa cells assessed as formation of bean shaped nuclei at 2.5 uM after 24 hrs by Hoechst 33342 staining based fluorescence microscopic analysis; format: functional, cell-based
[18] = Ionophoric activity across pyranine dye encapsulated pH 7 egg yolk L-alpha-phosphatidylcholine-based liposomal membranes assessed as chloride ion transport by measuring induction of pH discharge at 1.95 x 10^-3 mol% after 20 mins in presence of CsCl loaded external vesicles by fluorescence method
HeLa [19] = assay: Cytotoxicity against human HeLa cells assessed as reduction in cell viability up to 10 uM after 12 hrs in presence of chloride by MTT assay; format: functional, cell-based
[20] = Ionophoric activity across pyranine dye encapsulated pH 7 POPC-cholesterol-based liposomal membranes assessed as chloride ion transport by measuring induction of pH discharge at 7.81 x 10^-3mol% after 20 mins in presence of NaCl loaded external vesicles by fluorescence method
HepG2 [21] = assay: Cytotoxicity against human HepG2 cells assessed as reduction in cell viability at 50 uM after 48 hrs by MTT assay relative to control; format: functional; conditions: HepG2, 48 h
HeLa [22] = assay: Induction of apoptosis in human HeLa cells assessed as formation of apoptotic bodies at 2.5 uM after 24 hrs by Hoechst 33342 staining based fluorescence microscopic analysis; format: functional, cell-based
A549 [23] = assay: Cytotoxicity against human A549 cells assessed as reduction in cell viability at 50 uM after 48 hrs by MTT assay relative to control; format: functional; conditions: A549, 48 h
HeLa [24] = assay: Cytotoxicity against human HeLa cells assessed as reduction in cell viability up to 10 uM after 12 hrs in absence of chloride by MTT assay; format: functional, cell-based
HepG2 [25] = assay: Cytotoxicity against human HepG2 cells assessed as reduction in cell viability after 48 hrs by MTT assay; format: functional, cell-based; conditions: HepG2, 48 h
HeLa [26] = assay: Induction of apoptosis in human HeLa cells assessed as chromatin condensation at 2.5 uM after 24 hrs by Hoechst 33342 staining based fluorescence microscopic analysis; format: functional, cell-based
[27] = Binding affinity to chloride ion at 1.5 x 10^-5M using tetra(n-butyl)ammonium chloride measured after 5 mins by spectrophotometric titration method
[28] = as §1, with “measuring initial rate constant for” for “measuring”, “NaCl” for “LiCl”, “method (reference value: 5.03 +/- 1.02 10^-3/min)” for “method”
HeLa [29] = assay: Ionophoric activity across human HeLa cells assessed as chloride ion efflux at 10 uM after 3 hrs by acridine orange staining based fluorescence microscopic analysis; format: cell-based
MCF7 [30] = assay: Cytotoxicity against human MCF7 cells assessed as reduction in cell viability up to 10 uM after 12 hrs in absence of chloride by MTT assay; format: functional, cell-based
[31] = as §2, with “measuring initial rate constant for” for “measuring”, “discharge at 9.77 x 10^-4 mol%” for “discharge”, “method (reference value: 5.03 +/- 1.02 10^-3/min)” for “method”
A549 [32] = assay: Cytotoxicity against human A549 cells assessed as reduction in cell viability after 48 hrs by MTT assay; format: functional, cell-based; conditions: A549, 48 h
MCF7 [33] = assay: Cytotoxicity against human MCF7 cells assessed as reduction in cell viability at 50 uM after 48 hrs by MTT assay relative to control; format: functional; conditions: MCF7, 48 h
L02 = assay: Cytotoxicity against human LO2 cells assessed as reduction in cell viability after 48 hrs by MTT assay; format: cell-based; conditions: L02, 48 h
MCF7 [34] = assay: Ionophoric activity across human MCF7 cells assessed as chloride ion efflux up to 10 uM after 2 hrs by MQAE dye based fluorescence assay; format: cell-based
HeLa [35] = assay: Induction of apoptosis in human HeLa cells assessed as chromatin fragmentation at 2.5 uM after 24 hrs by Hoechst 33342 staining based fluorescence microscopic analysis; format: functional, cell-based
HeLa [36] = assay: Cytotoxicity against human HeLa cells assessed as reduction in cell viability after 48 hrs by MTT assay; format: functional, cell-based
[37] = Ionophoric activity across lucigenin probe encapsulated pH 7 egg yolk L-alpha-phosphatidylcholine-based large unilamellar vesicles loaded with Na2SO4 assessed as chloride ion efflux at 7.81 x 10^-3mol% after 20 mins in presence of NaCl loaded external vesicles by fluorescence method
[38] = Ionophoric activity across pyranine dye encapsulated pH 7 egg yolk L-alpha-phosphatidylcholine-based liposomal membranes assessed as chloride ion transport by measuring induction of pH discharge after 20 mins in presence of NaCl loaded external vesicles by fluorescence method relative to m-Bimbe
HeLa [39] = assay: Disruption of mitochondrial membrane potential in human HeLa cells assessed as decrease in ratio of red to green fluorescence at 5 to 10 uM after 24 hrs by JC1 staining based fluorescence microscopic analysis; format: functional, cell-based
[40] = Ionophoric activity across pyranine dye encapsulated pH 7 egg yolk L-alpha-phosphatidylcholine-based liposomal membranes assessed as chloride ion transport by measuring induction of pH discharge at 1.95 x 10^-3 mol% after 20 mins in presence of NaCl loaded external vesicles by fluorescence method

- Activity [2]: Active
- Activity [3]: Active
- Activity [4]: inactive
- Activity [5]: Active
- Activity [6]: Active
- Activity [7]: inactive
- EC50 [9]: 3.76 ×10⁻³ mol%
- EC50 ([9]; read-out: EC50): 0.05 µM
- K [10]: 2.11 ×10⁻² /min
- Activity [11]: inactive
- K [12]: 1.87 ×10⁻¹ /min
- K [13]: 1.33 ×10⁻¹ /min
- Activity [15]: inactive
- Activity [18]: Active
- Activity [20]: inactive
- Ka [27]: 7.53 ×10³ /M
- K [28]: 8.14 ×10⁻² /min
- K [31]: 4.08 ×10⁻² /min
- Activity [37]: inactive
- fold change (FC) [38]: 1720
- Activity [40]: Active
SMILES: O=[N+]([O-])c1cc(-c2nc3ccc(C(F)(F)F)cc3[nH]2)cc(-c2nc3ccc(C(F)(F)F)cc3[nH]2)c1
- inhibition at 50 µM (HeLa [1]): 94.9%
- Activity (MCF7 [8]): Active
- IC50 (MCF7 [14]): 9.4 to 9.7 µM
- Activity (HeLa [16]): Active
- Activity (HeLa [17]): Active
- Activity (HeLa [19]): Active
- inhibition at 50 µM (HepG2 [21]): 101%
- Activity (HeLa [22]): Active
- inhibition at 50 µM (A549 [23]): 100%
- Activity (HeLa [24]): Active
- IC50 (HepG2 [25]): 4.1 µM
- Activity (HeLa [26]): Active
- Activity (HeLa [29]): Active
- Activity (MCF7 [30]): Active
- IC50 (A549 [32]): 3.8 to 3.9 µM
- inhibition at 50 µM (MCF7 [33]): 99.2%
- IC50 (L02): 3.7 µM
- Activity (MCF7 [34]): Active
- Activity (HeLa [35]): Active
- IC50 (HeLa [36]): 1.9 µM
- Activity (HeLa [39]): Active
